Test results: a melting point compilation (Tetko et al.; mined from patent text by program, amines drawn as free bases though some values may be those of a salt)

SMILES	melting point [°C]
CCn1c(-c2ccc3c(c2)OCCO3)cc(=Nc2c(C)cc(C)cc2C)n(C)c1=O	75 to 82
CN(c1cc(OC(F)(F)F)cc2cc(C(=O)O)[nH]c12)S(=O)(=O)c1cccs1	245 to 246
CCS(=O)(=O)N(C)c1c(Cl)c(Cl)cc2[nH]c(=O)c(=O)[nH]c12	> 300
COc1cc(-c2nc(N(C)CCN(C)C)c3c(C)c(C#N)sc3n2)cc(OC)c1OC	125 to 127
O=C1N(Cc2ccc(C(F)(F)F)o2)c2ccccc2C12COc1cc3c(cc12)OC(F)(F)O3 (stereo unspecified)	59 to 60
c1ccc(-c2ccc3nc(C4(c5ccc6[nH]nnc6c5)N=c5ccccc5=N4)[nH]c3c2)cc1	> 280
NC(=O)c1sc2nccc(N3CCCC3)c2c1N	275 to 283
O=C(CCCCC1CCN(Cc2ccccc2)CC1)c1ccc(N2CCCC2)cc1	129 to 131
O=C1[C@H]2CCC[C@H]2N(C(=O)Cn2ccnc2)c2ccccc2N1Cc1ccccc1 (relative stereo)	183 to 184
CC(C)(C)OC(=O)N1CCN(c2ccc3c(c2)-n2c(nc4ccccc4c2=O)C3=O)CC1	226 to 228
O=C(NCc1ccccn1)Nc1cc(N2CC(c3cccc(F)c3)CC2=O)ccn1 (stereo unspecified)	188 to 189
CCC(CC)N1CCC(CNc2ccc(Cl)cc2C(=O)Nc2ccc(Cl)cn2)CC1	136 to 138
CC1(C)CCC2(C(=O)O)CCC3(C)C(=CCC4C5(C)Cc6c(n[nH]c6N)C(C)(C)C5CCC43C)C2C1 (stereo unspecified)	263 to 266
CC1(C)CCCC(C)(C)N1Cc1ccc2cc(NC(=O)N3CCC(c4ccc(Cl)cc4)CC3)ccc2n1	203 to 204
CC1=C(C(=O)OC2CN(C(c3ccccc3)c3ccccc3)C2)C(c2cccc([N+](=O)[O-])c2)C(C(=O)OC(C)C)=C(N)N1 (stereo unspecified)	104 to 107
C#CCn1c(=O)sc2cc(F)c(-n3c(OC)nc(C(F)(F)F)cc3=O)cc21	191 to 192
O=[N+]([O-])c1ccc(CCN2CCN(C3CCc4ccccc4C3O)CC2)cc1 (stereo unspecified)	155 to 159
Oc1cccc(/C=C/c2ccccc2)c1	125 to 126
CCOC(=O)CCc1ccc(CBr)cc1	132
COc1ccc2c(Cc3ccco3)nnc(N3CCCC3)c2c1	148 to 149
CC(=O)NC(c1ccc(Cl)cc1)(c1ccc2c(c1)c(-c1nc(-c3ccccc3)cs1)cc(=O)n2C)c1cncn1C (stereo unspecified)	244
Cc1cccc(NC(c2ccc(OC(C)C)cc2)c2ccc3cccnc3c2O)n1 (stereo unspecified)	132 to 134
CC(=O)c1cc([N+](=O)[O-])c2c(c1)C(C)(C)CCO2	117 to 119
COc1ccc(-c2c(C(=O)O)n(Cc3cc4c(cc3Cl)OCO4)c3ccccc23)c(OCC(=O)O)c1	61 to 62

SMILES	melting point [°C]
Cc1ccc(-c2cc(C)c(C(=O)N=C(N)N)cc2S(C)(=O)=O)cc1	222 to 224
CC(C)Cn1c(=O)n(C)c(=O)c2c(Sc3ccc([N+](=O)[O-])cn3)c(Cc3cccc4ccccc34)sc21	200 to 201
O=C(Cc1cccnc1)Nc1cccc(-c2ccnc3c(C(=O)c4cccs4)cnn23)c1	> 200
Cc1cccc2c1nc(-c1ccc3ccccc3c1)n2Cc1c(F)cccc1F	175 to 176
COc1cccc(SC(CC(=O)c2ccccc2)c2cccc([N+](=O)[O-])c2)c1 (stereo unspecified)	105
CN(C)c1nc(O)ns1	142
Cc1cc(Oc2ncc(C(F)(F)F)cc2Cl)nn1C(=O)N(C)C	102 to 104
COc1cc2c(cc1CCNC(=O)Cc1ccc(OC)c(OC)c1)CCC2	115
CCNc1nnc2ccc(-c3cccc(N(CC)C(=O)CC)c3)nn12	164 to 166
O=C1NC(=O)C(c2sccc2Br)O1 (stereo unspecified)	138 to 139
C=C(C)COc1ccc2c(C)cc(=O)oc2c1C(=O)C=Cc1ccccc1	158 to 160
O=C(Nc1cc2nc(-c3ccc(C(=O)C4CCCCC4)cc3)[nH]c2cn1)C1CCCCC1	235
CC(=O)OC1CSC(Oc2ccccc2[N+](=O)[O-])C(OC(C)=O)C1OC(C)=O (stereo unspecified)	148
Nc1ccc(Cl)cc1C(=O)c1ccccc1O	51 to 52
NC(=O)c1cc(O)c(O)c([N+](=O)[O-])c1	235 to 236
O=C1CCC(=O)N1CC(O)COc1ccccc1 (stereo unspecified)	130
CC(C)(C)OC(=O)NC(CC(O)CNC(Cc1ccccc1)C(O)CNC(=O)OCc1ccccc1)c1ccccc1 (stereo unspecified)	120 to 121
COc1ccc2c(c1)C(c1ccc(N)cc1)=NN(C(=O)C1CC1)C(C)=C2	214 to 216
CCOC(=O)/C=C1/CO[C@](C)([C@H]2CC[C@H]3[C@@H](O[Si](C)(C)C(C)(C)C)CCC[C@@]32C)C1	101
O=C(O)c1oc(-c2ccccc2)cc(=O)c1Br	247
C=C(Cc1ccccc1)C(=O)NN1CCSCC1	141
CCCCc1cc(Br)c(N=Nc2ccc(N(CCO)CCO)cc2NC(C)=O)c(Br)c1	157 to 159
Cc1cc(C)c(O)cn1	146 to 148
N#Cc1cc2cccnc2nc1O	300

SMILES	melting point [°C]
COc1ccc2oc(N)c(C(N)=O)c(=O)c2c1	270
COc1ccc(CCNC(=O)CC(NC(=O)CCNC(=O)c2ccc(C(=N)N)cc2)C(=O)O)cc1 (stereo unspecified)	217
COc1ccc(CCNC(=O)C(F)(F)F)cc1OC	93
Cc1cccnc1C1CC(C)(C)Oc2ccccc21 (stereo unspecified)	100 to 102
CC1=C(C(=O)c2ccc(C(=O)O)cc2)C(=O)C2C=CC=CC2C1=O (stereo unspecified)	201
CCNC(=O)Nc1nc2cc(-c3c(C)noc3C)cc(C(=O)NCC)n2n1	238 to 241
C=CCc1c(O)c(C(C)=O)cc(C(C)=O)c1O	84 to 86
Cc1cn(-c2ccc(N3C[C@H](CO)OC3=O)cc2F)nn1	190 to 192
Nc1nc2c(Cc3ccsc3)c[nH]c2c(=O)[nH]1	222 to 224
COC(=O)c1ccc(Cc2cn(C)c3ccc(NC(=O)OC4CCCC4)cc23)c(OC)c1	134 to 135
CO[C@@H](C(=O)N[C@H]1CC[C@@H](OC(=O)Cc2ccc(Cl)c(Cl)c2)CNC1=O)[C@H](O)[C@@H](O)[C@H](O)/C=C/C(C)(C)C	132 to 136
CCCOc1ccc(-c2scc(-c3ccccc3Cl)c2CC(=O)NC(=N)n2cccn2)cc1	119 to 120
O=Cc1cccc(C(CC2=NCCN2)c2ccccn2)c1 (stereo unspecified)	138 to 139
COc1nccc2c([N+](=O)[O-])c(C)ccc12	94
O=C(O)Cc1c(C(=O)O)c2cc(Oc3ccc(C(F)(F)F)cc3)ccc2n1-c1ccc(C2CCNCC2)cc1	256 to 258
CCCCCCCCCCCCCCCCCCOc1cc(C(=O)O)cc([N+](=O)[O-])c1	101 to 103
COc1c(S(=O)(=O)NCc2ccc(Cl)cc2)cc(Br)c2ccc(C)nc12	108 to 110
Cc1ccc(-n2cc(C)cc2-c2ccc(S(N)(=O)=O)cc2)cc1	144 to 147
NC(=O)CC12CCCCC1CCc1ccccc12 (stereo unspecified)	177
COc1ccc2c(c1)c(Cc1nc(-c3ccc(F)cc3F)cs1)c(C)n2C(=O)c1ccc(Cl)cc1	134 to 136
CC(C)N1CCC(n2cc(C3=C(c4cn(C)c5ccccc45)C(=O)NC3=O)c3ccccc32)CC1	> 250
Cc1cccc(NC(=O)NCC(=O)N2[C@@H](C(=O)OC(C)(C)C)C[C@@H](C#N)[C@H]2c2ccccc2)c1 (racemic)	150
CC(C)(C)NC(=O)N1CCn2c(Cl)c(-c3ccccc3)c(C(N)=O)c2C1	192 to 195
CC(C)n1nc(-c2nc(-c3nc(-c4ccccc4)cs3)c(N)nc2-c2ccccc2)ccc1=O	240 to 242

SMILES	melting point [°C]
N#Cc1cnn(-c2ccc(Cl)c(Cl)c2Cl)c1NC(=O)CCCCl	173 to 174
O=C1c2ccccc2C(=O)N1CCCC(=O)N1c2ccccc2N(Cc2ccccc2)C(=O)[C@H]2CCC[C@H]21 (relative stereo)	182 to 184
CCN(CC)C(C)COc1ccc(NC(=O)C#Cc2ccc(Cl)cc2Cl)cc1 (stereo unspecified)	70 to 72
CCCCN1C(=O)CCC(C)(C)c2cc(C(=O)Nc3ccc(C(=O)O)cc3)ccc21	269
CC(C)NC(=O)c1nc(-c2cccc(F)c2)c(-c2ccc(=O)n(C(C)C)n2)s1	104 to 106
CC(=O)NC1(c2ccc(Cl)c(C(F)(F)F)c2)CCN(Cc2ccccc2)CC1	198 to 199
Fc1ccc(-c2cc(C(S)(C(F)(F)F)C(F)(F)F)[nH]c2-c2ccc(F)cc2)cc1	114 to 115
CC(C)c1ccc(N(Cc2ccc(N(C)C)cc2)C(=O)C2CC(=O)Nc3ccccc32)cc1 (stereo unspecified)	170
CC(=O)NCC#CCn1ccnc1	93 to 95
COCc1nc(N)nc(N)c1-c1ccc(Cl)cc1Cl	183 to 185
C#CC1=CCC2C3CCC4=CC(=O)CCC4C3CCC12C (stereo unspecified)	148 to 152
NC(=NO)c1ncn2c1[C@@H]1CCN1C(=O)c1c-2ccc(F)c1Cl	236 to 238
CCN(CC)Cc1nc(-c2ncn3c2[C@@H]2CCN2C(=O)c2ccccc2-3)no1	209 to 211
CCOc1cc2c(O)c(Br)cnc2nc1C	266 to 267
COC[C@H](Cc1ccccc1)NC(=O)[C@@H](CC(=O)O)n1ccc(-c2ccc(-c3ccccc3)cc2)c1	247
COC(=O)c1cc(Cl)c(NC(C)=O)c([N+](=O)[O-])c1O	166 to 169
O=S(=O)(Nc1ccc2c(OCc3ccc4ccccc4c3)cccc2c1)C(F)(F)F	140 to 142
COc1ccc(C=C2N=C(c3ccccc3I)OC2=O)cc1OC	200 to 202
CC(C)(C)C1=CC(C=O)(C(C)(C)C)NN1 (stereo unspecified)	216 to 219
COC(=O)C(=C1SC=CS1)S(=O)(=O)C(C)C	141 to 142
CCCCCCCCCCCCCCCC1CCCC(=O)C1 (stereo unspecified)	41
CCOC(=O)COc1ccc(C23CC4CC(CC(C4)C2)C3)cc1	89 to 90
CCCCCC1(c2ccc(C)cc2)OCc2c(O)c(C)nc(Cl)c21 (stereo unspecified)	180
CC(=O)n1nc(-c2ccc(Cl)cc2)nc1C	132 to 133
